Measured values reported in patent publication US12492223B2, “Peptide compositions capable of binding lanthionine synthetase C-like protein (LanCl) and uses thereof” (priority 2021, dated 2025).
“And” between values parts separate entries of the source, which are not always exact repeats. Identical values can stand only once. Like-named read-outs stand apart in the source and are kept apart here. Positions of bridges follow the written chain, without caps; N, C: chain ends. No end group written: not given here.

Assays:
A549 cells = assay: A549 proliferation + stress assay (restoration of viability of Taxol-treated cells, CellTiter-Glo); assay type: cell-based, human; parameters: key to Estimated Activity in A549 proliferation + stress assay: Inactive: no activity up to 100 μM; WEAK: some or variable restoration of cell viability at 50-100 μM; MODERATE: moderate dose-dependent restoration of cell viability at >25 μM; STRONG: clear dose-dependent restoration of cell viability from 1-5 μM upwards; settings: for Estimated Activity in A549 proliferation + stress assay: 350 μM Taxol, 16 hours, peptide 1-100 μM
Description: An assay was developed that involves stressing cells with a dose of the chemotherapeutic agent, Taxol, that causes a 50% inhibition of cell viability when compared to untreated cells. Peptides were then added to the cell cultures at increasing concentrations to assess their ability to restore the viability of the Taxol-treated cells.
Briefly, A549 cells were cultured in opaque-walled multiwell plates with 50000 A549 cells/well in culture medium (DMEM medium ref 11960-044 Thermoscientific, +10% FBS ref 10270-106 Gibco, Thermoscientific, +1% Na pyruvate ref S8636-100 ML, Sigma, +1%, Glutamax ref35050061, Thermoscientific, +1% Penicillin-Streptomycin, ref 11074440001, Sigma) 100 μl per well for 96-well plates. Control wells containing medium without cells were used to obtain a value for background luminescence. Cells were incubated at 37° C. in 5% CO2 overnight.
100 μL of medium+DMSO+peptides or medium+Taxol+peptides (at the different concentrations) were added to each well and incubated for 16 hours at 37° C. 5% CO2.
Cell morphology, viability and confluency were assessed by phase contrast microscopy. The CellTiter-Glo® Luminescent Cell Viability Assay (G7571, Promega—a homogeneous method to determine the number of viable cells in culture based on quantitation of the ATP present) was then used to quantify the number of metabolically active cells, according to the manufacturer's instructions. 100 μl volume of CellTiter-Glo® Reagent was added to the 100 μL volume of cell culture medium present in each well, Contents were mixed for 2 minutes on an orbital shaker to induce cell lysis and after incubating the plates at room temperature for 10 minutes to stabilize luminescent signal luminescence was recorded with an integration time of 0.5 seconds using a CLARIOstar multi well luminometer (BMG Labtech)

HKx31 (H3N2) = assay type: in vivo, mice; parameters: key to PMN activity score / Viral titre activity score / BAL IL-6 activity score: 0: inactive; 1: less active than the peptide of SEQ ID NO:38; 2: comparable or more active than the peptide of SEQ ID NO:38; settings: for IL-6 levels in the BAL fluid / viral titres: 10 mg/kg single dose
Chung model rats = assay: In vivo model of neuropathic pain (II): spinal nerve ligation (Chung) model, paw withdrawal threshold; parameters: species or system rat; settings: mean ± SEM, n=6
Description: The spinal nerve ligation (Chung) model was prepared as described in Example 4, above. Briefly, sixty-four adult male Sprague-Dawley rats, 8-9 weeks old, weighing 250-350 g at the time of surgery, were purchased from Charles River UK Ltd. The animals were housed in groups of 4 in an air-conditioned room on a 12-hour light/dark cycle. Food and water were available ad libitum. Animals were allowed to acclimatise to the environment for experiments for three days by leaving them on a raised metal mesh for at least 40 minutes. The baseline paw withdrawal threshold (PWT) was examined using a series of graduated von Frey hairs for 3 consecutive days before surgery and re-assessed on the 7th day after surgery and on the 12th to 14th day after surgery before drug dosing.
Each rat was anaesthetized with 5% isoflurane mixed with oxygen (2 L per min) followed by an intramuscular (i.m.) injection of ketamine 60 mg/kg plus xylazine 10 mg/kg. The back was shaved and sterilized with povidone-iodine. The animal was placed in a prone position and a para-medial incision was made on the skin covering the L4-6 level. The L5 spinal nerve was carefully isolated and tightly ligated with 6/0 silk suture. The wound was then closed in layers after a complete haemostasis. A single dose of antibiotics (Amoxipen, 15 mg/rat, i.p.) was routinely given for prevention of infection after surgery. The animals were placed in a temperature-controlled recovery chamber until fully awake before being returned to their home cages.
Animals with validated neuropathic pain state were randomly divided into 4 experimental groups: Vehicle (5% DMSO first then in 0.9% saline), 3 mg/kg LAT9997, 3 mg/kg LAT9997×1, and 3 mg/kg LAT1233×1. Each group contained 6 animals.
RSVEGS (SEQ ID NO:9; LAT9997), SVEGS (SEQ NO: 62; LAT9997×1) and ALNSS (SEQ ID NO:63; LAT1233×1) were dissolved in 5% DMSO first then in 0.9% saline, which also served as the vehicle control. All compounds were provided from GenScript for Lateral Pharma. All vehicle/compounds were administrated intravenously at 1 ml/kg body weight.
The animals were placed in individual Perspex boxes on a raised metal mesh for at least 40 min. Starting from the filament of lowest force (1 gram (g)), each vFH filament was applied perpendicularly to the centre of the ventral surface of the paw until it slightly bent for 6 seconds. If the animal withdrew or lifted its paw upon stimulation, a filament with force immediately lower than that tested was used. If no response was observed, a filament with force immediately higher was then tested. The lowest amount of force required to induce reliable responses (positive in 2 out of 3 trials) was recorded as the value of the PWT.
PWT was assessed once daily for three days before surgery (pre D1, Pre D2 and D0) and on day 7 following surgery for monitoring the development of mechanical allodynia.
All drug tests were carried out on the 13th to 17th day after surgery. […]
One-way analysis of variance (ANOVA) (IBM statistics SPSS, Version 27) was used for statistical analysis to compare PWT of different groups at the same time points. When appropriate, Fisher's Least Significant Difference (LSD) post-hoc test was used to compare drug treatment groups to the control groups. A paired Student's t-test (Microsoft Excel 365) was used to compare values of different time points in the same group. To characterise the drug-induced change in PWT relative to vehicle, vehicle values were subtracted from the appropriate drug values. The significance level was set at P<0.05.

[1] = PMN infiltrate in BAL fluid, […], relative to SEQ ID NO:38, 10 mg/kg
[2] = single 10 mg/kg dose, day 3, relative to SEQ ID NO:38
[3] = 1 hour after 3 mg/kg intravenously, listed as LAT1233x1
[4] = 1 hour after 3 mg/kg intravenously, listed as LAT1233×1
[5] = 2 hours after 3 mg/kg intravenously, listed as LAT1233x1
[6] = 2 hours after 3 mg/kg intravenously, listed as LAT1233×1
[7] = 4 hours after 3 mg/kg intravenously, listed as LAT1233x1
[8] = 4 hours after 3 mg/kg intravenously, listed as LAT1233×1
[9] = Pre-dosing, 3 mg/kg group, listed as LAT1233x1, 3 mg/kg
[10] = Pre-dosing, 3 mg/kg group, listed as LAT1233×1, 3 mg/kg
[11] = 1 hour after 3 mg/kg intravenously, listed as LAT9997
[12] = 2 hours after 3 mg/kg intravenously, listed as LAT9997
[13] = 4 hours after 3 mg/kg intravenously, listed as LAT9997
[14] = Pre-dosing, 3 mg/kg group, listed as LAT9997, 3 mg/kg
[15] = 1 hour after 3 mg/kg intravenously
[16] = 2 hours after 3 mg/kg intravenously
[17] = 4 hours after 3 mg/kg intravenously

Row | Substance | IL-6 levels in the BAL fluid (HKx31 (H3N2)) | viral titres (HKx31 (H3N2); day 3) | BAL IL-6 activity score (HKx31 (H3N2); mouse, in vivo, 10 mg/kg) | PMN activity score (HKx31 (H3N2); mouse, in vivo, 10 mg/kg) | Viral titre activity score (HKx31 (H3N2); mouse, in vivo, 10 mg/kg) | reducing the PMN infiltrate in BAL fluid, compared with the peptide of SEQ ID NO:38 (HKx31 (H3N2); single 10 mg/kg dose) | also measured
1 | 8 (CSGRVSECGF; disulfide 1-8) [compound 8] | – | – | – | – | – | – | Estimated Activity in A549 proliferation + stress assay (A549 cells): Inactive
2 | 11 (SCRSRPVESSC) [compound 11] | – | – | – | – | – | – | Estimated Activity in A549 proliferation + stress assay (A549 cells): Inactive; restoration of A549 viability (A549 cells; Taxol-treated A549 cells): did not
3 | 23 (RPVESS) [compound 23] | as effective | effective | 1 | 1 | 2 | relatively less effective | –
4 | 29 (RIIHNN) [compound 29] | as effective | effective | 2 | 2 | 2 | as effective | –
5 | 41 (RALNSS; SITE 1 Arg 1 is bonded to Ser 6; SITE 6 Ser 6 is bonded to Arg 1) [compound 41] | – | – | – | 1 | – | relatively less effective | –
6 | 43 (RALRTK) [compound 43] | – | – | – | – | – | did not show any changes | –
7 | 44 (HIVESS) [compound 44] | as effective | – | 2 | – | 1 | did not show any changes | PMN activity score (HKx31 (H3N2); [1]): 0
8 | 47 (RAVESS) [compound 47] | as effective | – | 2 | – | 1 | – | PMN activity score (HKx31 (H3N2); [1]): 0
9 | 49 (RALNST) [compound 49] | as effective | – | 2 | – | – | – | PMN activity score (HKx31 (H3N2); [1]): 0; Viral titre activity score (HKx31 (H3N2); [2]): 0
10 | 50 (RALQSS) [compound 50] | as effective | effective | 2 | 1 | 2 | relatively less effective | –
11 | 52 (PALNTS) [compound 52] | as effective | effective | 2 | – | 2 | did not show any changes | PMN activity score (HKx31 (H3N2); [1]): 0
12 | 56 (RSVEG) [compound 56] | as effective | effective | 2 | 2 | 2 | as effective | –
13 | 57 (RSVE) [compound 57] | – | – | – | 1 | – | relatively less effective | BAL IL-6 activity score (HKx31 (H3N2); IL-6 in BAL fluid, single 10 mg/kg dose, relative to SEQ ID NO:38): 0; Viral titre activity score (HKx31 (H3N2); [2]): 0
14 | ALNSS [SEQ ID NO: 63] | – | – | – | – | – | – | contralateral Paw withdrawal threshold (Chung model rats; [3]): 15.00 ± 0.00 g; ipsilateral Paw withdrawal threshold (Chung model rats; [3]): 10.67 ± 1.67 ▴** g; contralateral Paw withdrawal threshold (Chung model rats; [4]): 15.00 ± 0.00 g; ipsilateral Paw withdrawal threshold (Chung model rats; [4]): 10.67 ± 1.67 g; contralateral Paw withdrawal threshold (Chung model rats; [5]): 14.17 ± 0.83 g; ipsilateral Paw withdrawal threshold (Chung model rats; [5]): 11.50 ± 1.80 ▴** g; contralateral Paw withdrawal threshold (Chung model rats; [6]): 14.17 ± 0.83 g; ipsilateral Paw withdrawal threshold (Chung model rats; [6]): 11.50 ± 1.80 g; contralateral Paw withdrawal threshold (Chung model rats; [7]): 15.00 ± 0.00 g; ipsilateral Paw withdrawal threshold (Chung model rats; [7]): 10.17 ± 1.17 ▴** g; contralateral Paw withdrawal threshold (Chung model rats; [8]): 15.00 ± 0.00 g; ipsilateral Paw withdrawal threshold (Chung model rats; [8]): 10.17 ± 1.17 g; contralateral Paw withdrawal threshold (Chung model rats; [9]): 15.00 ± 0.00 g; ipsilateral Paw withdrawal threshold (Chung model rats; [9]): 3.33 ± 0.42 g; contralateral Paw withdrawal threshold (Chung model rats; [10]): 15.00 ± 0.00 g; ipsilateral Paw withdrawal threshold (Chung model rats; [10]): 3.33 ± 0.42 g
15 | RSVEGS [SEQ ID NO: 9] | – | – | – | – | – | – | contralateral Paw withdrawal threshold (Chung model rats; [11]): 15.00 ± 0.00 g; ipsilateral Paw withdrawal threshold (Chung model rats; [11]): 7.83±1.72 g and 7.83 ± 1.72 ^ g; contralateral Paw withdrawal threshold (Chung model rats; [12]): 15.00 ± 0.00 g; ipsilateral Paw withdrawal threshold (Chung model rats; [12]): 9.67±1.73 g and 9.67 ± 1.73 ▴* g; contralateral Paw withdrawal threshold (Chung model rats; [13]): 15.00 ± 0.00 g; ipsilateral Paw withdrawal threshold (Chung model rats; [13]): 8.17±1.60 g and 8.17 ± 1.60 ^ g; contralateral Paw withdrawal threshold (Chung model rats; [14]): 14.17 ± 0.83 g; ipsilateral Paw withdrawal threshold (Chung model rats; [14]): 3.33 ± 0.42 g
16 | SVEGS [SEQ ID NO: 62] | – | – | – | – | – | – | contralateral Paw withdrawal threshold (Chung model rats; [15]): 15.00 ± 0.00 g; ipsilateral Paw withdrawal threshold (Chung model rats; [15]): 11.17 ± 1.74 ▴** g; contralateral Paw withdrawal threshold (Chung model rats; [16]): 15.00 ± 0.00 g; ipsilateral Paw withdrawal threshold (Chung model rats; [16]): 12.67 ± 1.56 ▴*** g; contralateral Paw withdrawal threshold (Chung model rats; [17]): 15.00 ± 0.00 g; ipsilateral Paw withdrawal threshold (Chung model rats; [17]): 11.00 ± 1.41 ▴** g; contralateral Paw withdrawal threshold (Chung model rats; Pre-dosing, 3 mg/kg group): 15.00 ± 0.00 g; ipsilateral Paw withdrawal threshold (Chung model rats; Pre-dosing, 3 mg/kg group): 3.33 ± 0.42 g
